# Measurements: patent US20240139149A1, “THERAPEUTIC USES OF UROLITHIN DERIVATIVES” (Vandria SA, priority 2022, published 2024)
# How the values were obtained:
# [1] = tested on: CEA-CAR T cells / CEA-expressing human CRC organoids; assay: CEA-CAR T cells exposed to UA and killing of human CRC organoids; assay type: cell-based
# APTK-OVA tumors = assay: Adoptive transfer of UA-conditioned OT-1 T cells into Rag1−/− mice; assay type: in vivo, mouse
# Protocol: For adoptive cell transfer, purified splenic T cell from OT1 mice were isolated and activated using αCD3/αCD28 stimulation beads for 48 h. After magnetic bead removal, 1×10^6 T of activated T cell were intravenously injected into Rag1−/− recipients. To study survival of transferred T cells, stimulated OT-1 T cells were injected into mice without tumors. Subsequently, after 7 days, spleens were isolated and splenocytes were stained for the CD8+ subsets as described below. To understand antitumor immunity conferred by transferred OT-1 lymphocytes, cells were injected into mice carrying APTK-OVA tumors 10 days after subcutaneous organoid transplantation. Tumor growth was assessed as described above. Mice were kept under regular chow food for the T cell adoptive transfer experiment and sacrificed collectively when maximum tumor diameter extended 1.5 cm.
# Tumors were minced and digested with Tumor & Tissue Dissociation Reagent (BD Horizon) for 30 min. The remaining organ pieces were filtered through a 70 µm cell strainer. Cells were then washed with PBS 1% BSA and 2 mM EDTA. Immune cells were enriched on a 30%/40%/75% Percoll gradient after a 1700 rpm 17 min centrifugation. Then, tumor immune filtrates or activated T cells were stained with Fixable Viability Dye-eF780 (65-0865-14; eBioscience), αCD45-FITC (30-F11; 11-0451-85; eBioscience), αCD11b-BV650 (M1/70; 56340; BD) α-CD11c-BV785 (HL3; 563735; BD), aLy6G-BV605 (53-6.7; 563005; BD), aLy6C-AF700 (HK1.4; 128024; Biolegend), aF4/80-PE (BM8; 12-4801-82, eBioscience), aPD-L1-PECy7 (MIH5; 25-5982-80, eBioscience); or with Fixable Viability Dye-eF780 (ebioscience), αCD45-BV786 (30-F11; 564225; BD), αCD4-BUV496 (GK1.5; 564667; BD), αCD8-BV605 (100744; Biolegend), aPD1-APC (J43; 17-9985-82; eBioscience), aTIM-3-PECy7 (RMT3-23; 119715; Biolegend), aCTLA4-PE (UC10-4B9; 106305; Biolegend) and aLag3-BV421 (C9B7W; 125221, Biolegend); or with Fixable Viability Dye-eF780 (eBioscience), αCD4-FITC (H129.19; 553650; BD), αCD8-APC (53-6.7; 17-0081-83; eBioscience), αCD44-AF400 (IM7; 103026; Biolegend), αCD62L-BV785 (MEL-14; 104440; Biolegend), αSca-1-PerCP-Cy5.5 (D7; 45-5981-82; eBioscience), αCD95-PE (Jo2; 554258; BD); or with Fixable Viability Dye-eF780 (eBioscience), αCD8-BV650 (53-6.7; 563234; BD), αCD4-BUV496 (GK1.5; 564667; BD), αCD127-APC (A7R34; 17-1271-82; eBioscience), αCD95-FITC (SA367H8;152605; Biolegend), αCD44-AF400 (IM7; 103026; Biolegend), αCD62L-BV785 (MEL-14; 104440; Biolegend), αSca-1-PerCP-Cy5.5 (D7; 45-5981-82; eBioscience) followed by intracellular staining of aTCF1-PE (S33-966; 564217; BD), or PGC-1α (sc-518025; D-5; santa cruz), or aCyclinD1 (MA5-28534, DCS-6; Invitrogen) with transcription factor buffer set kit (BD Biosciences). To study cytokine expression, tumor immune infiltrates were stimulated ex vivo with 20 ng/mL PMA and […] Ionomycin (Sigma) for 3 h in T cell activation medium with Brefeldin A (Biolegend). For T cell in vitro activation experiments over several days, Brefeldin A was added to the medium for the last 3 hours. Cells were then stained with Fixable Viability Dye-eF780 (eBioscience), αCD8-PeCy7 (53.6-7; 100722; Biolegend), αCD4-AF700 (GK1.5; 100429; Biolegend), and intracellular staining for cytokine assessment was performed with BD Cytofix/Cytoperm (BD) with 20 min fixation and overnight incubation with αGranzyme B-FITC (GB11; 515403; Biolegend), αIFNγ-PerCPCy5.5 (XMG1.2; 45-7311-82; eBioscience) and αTNFa-BV711 (MP6-XT22; 563944; BD). For flow cytometric analysis of mitochondria and lysosomes 500 μl of Mitotracker Red (200 nM; ThermoFisher) or Lysotracker Red DND-99 (75 nM; ThermoFisher) were applied followed by surface staining. To study changes in mitochondrial membrane potential, Mitoprobe TMRM kit (ThermoFisher) was used according to the manufacturer's instructions. Cell proliferation was assessed by CellTrace Violet (Invitrogen, C34557) at a concentration of […] according to manufacturer's instructions. […]
# APTK-s.c. tumors = assay: Subcutaneous APTK organoid tumors, UA diet, with TIL analysis; assay type: in vivo, mouse
# Protocol: Urolithin A containing diet (2.28 g/kg) or AIN− 93G control food (Brogaarden) were given ad libitum once introduced for experimental purpose at the indicated time.
# For subcutaneous colorectal cancers, APTK organoids were mechanistically disrupted, incubated with Accutase to generate a single cell suspension and reconstituted in PBS 20% Matrigel (Corning) for subcutaneous transplantation. Tumor sizes were measured at the indicated time after transplantation and tumor volume quantified as ½(width2×length). Urolithin A or control food regiment were initiated either one week before tumor challenge or 11 days after tumor development. Therapeutic diets were maintained throughout the experiment unless indicated otherwise.
# Tumors were minced and digested with Tumor & Tissue Dissociation Reagent (BD Horizon) for 30 min. The remaining organ pieces were filtered through a 70 m cell strainer. Cells were then washed with PBS 1% BSA and 2 mM EDTA. Immune cells were enriched on a 30%/40%/75% Percoll gradient after a 1700 rpm 17 min centrifugation. Then, tumor immune filtrates or activated T cells were stained with Fixable Viability Dye-eF780 (65-0865-14; eBioscience), αCD45-FITC (30-F11; 11-0451-85; eBioscience), αCD11b-BV650 (M1/70; 56340; BD) α-CD11c-BV785 (HL3; 563735; BD), aLy6G-BV605 (53-6.7; 563005; BD), aLy6C-AF700 (HK1.4; 128024; Biolegend), aF4/80-PE (BM8; 12-4801-82, eBioscience), aPD-L1-PECy7 (MIH5; 25-5982-80, eBioscience); or with Fixable Viability Dye-eF780 (ebioscience), αCD45-BV786 (30-F11; 564225; BD), αCD4-BUV496 (GK1.5; 564667; BD), αCD8-BV605 (100744; Biolegend), aPD1-APC (J43; 17-9985-82; eBioscience), aTIM-3-PECy7 (RMT3-23; 119715; Biolegend), aCTLA4-PE (UC10-4B9; 106305; Biolegend) and aLag3-BV421 (C9B7W; 125221, Biolegend); or with Fixable Viability Dye-eF780 (eBioscience), αCD4-FITC (H129.19; 553650; BD), αCD8-APC (53-6.7; 17-0081-83; eBioscience), αCD44-AF400 (IM7; 103026; Biolegend), αCD62L-BV785 (MEL-14; 104440; Biolegend), αSca-1-PerCP-Cy5.5 (D7; 45-5981-82; eBioscience), αCD95-PE (Jo2; 554258; BD); or with Fixable Viability Dye-eF780 (eBioscience), αCD8-BV650 (53-6.7; 563234; BD), αCD4-BUV496 (GK1.5; 564667; BD), αCD127-APC (A7R34; 17-1271-82; eBioscience), αCD95-FITC (SA367H8;152605; Biolegend), αCD44-AF400 (IM7; 103026; Biolegend), αCD62L-BV785 (MEL-14; 104440; Biolegend), αSca-1-PerCP-Cy5.5 (D7; 45-5981-82; eBioscience) followed by intracellular staining of aTCF1-PE (S33-966; 564217; BD), or PGC-1α (sc-518025; D-5; santa cruz), or aCyclinD1 (MA5-28534, DCS-6; Invitrogen) with transcription factor buffer set kit (BD Biosciences). To study cytokine expression, tumor immune infiltrates were stimulated ex vivo with 20 ng/mL PMA and 1 g/mL Ionomycin (Sigma) for 3 h in T cell activation medium with Brefeldin A (Biolegend).
# [2] = C57BL/6 mice, s.c. APTK organoids, UA-supplemented diet
smiles,measurement,setting,value
"O=c1oc2cc(O)ccc2c2ccc(O)cc12 [UA, Urolithin A]",killing of CEA-expressing human CRC organoids,[1]; 72 h co-culture,comparable killing efficacy
same,CAR TSCM formation in CEA-specific CAR-T cells,[1]; UA applied to previously frozen CAR-T cells,strongly enhanced
same,CD62L expression in CD8+ TIL,APTK-OVA tumors; UA-T cell transfer,remained unchanged
same,expression of CD44 in CD8+ TIL,APTK-OVA tumors; UA-T cell transfer,lower expression
same,number of TCF1HiCD8+ tumor infiltrating T cells,APTK-OVA tumors; UA-T cell transfer,higher number
same,suppression of APTK-OVA tumors,APTK-OVA tumors; UA-conditioned vs control OT-I T cells,more substantial tumor suppression
same,Tim3HiPD1Hi terminally exhausted CD8+ T cells in the TME,APTK-OVA tumors; UA-pretreated T cells,less
same,CD8+ T cell infiltration,APTK-s.c. tumors; [2],enhanced
same,tumor growth,APTK-s.c. tumors; [2],significantly reduced
same,tumor response in combination with PD-1 blockade,"APTK-s.c. tumors; C57BL/6 mice, s.c. APTK tumors, UA diet plus α-PD-1",sensitized APTK tumors to PD-1 blockade
same,tumor suppressive effect in Pink1−/− mice,"APTK-s.c. tumors; Pink1−/− mice, s.c. APTK organoids, UA diet",abrogated the tumor suppressive effect
same,protective effect on tumor growth in Rag1−/− mice,"APTK-s.c. tumors; Rag1−/− mice (no mature T and B cells), s.c. APTK organoids, UA diet",abrogated the protective effect
same,"CD4+ TSCM, dendritic cells, TAMs, MDSC subsets in tumors",APTK-s.c. tumors; UA diet vs control diet,no change
same,CD8+CD44loCD62LhiSca1hi T cells in APTK-induced tumors,APTK-s.c. tumors; UA diet vs control diet,marked increase
same,TCF1 expression in tumor infiltrating CD8+ T cells,APTK-s.c. tumors; UA diet vs control diet,increased expression
same,mitochondrial content in TIL of APTK tumors,APTK-s.c. tumors; UA diet vs control diet,increased mitochondrial content
same,"exhaustion markers PD-1, CTLA-4 and Tim3 in CD8+ T cells",APTK-s.c. tumors; UA-fed mice,reduction
same,TNFα and IFNγ in tumor infiltrating CD8+ T cells,APTK-s.c. tumors; restimulated with PMA/ionomycin ex vivo,stronger induction
